From US4731109A, “Herbicidal 2-haloacetanilides” (Monsanto Company, priority 1982, dated 1988)

What was measured:
corn = assay: Greenhouse pre-emergence GR15/GR85 selectivity test; assay type: in vivo; settings: Table IV
How it was run: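 Active ingredient mixed into cover soil over seeded pans (pre-emergence soil incorporation), initial overhead irrigation equal to 0.64 cm rainfall, then subirrigation. Scored about 2-3 weeks after seeding; GR15 (crop) and GR85 (weed) rates in kg/ha, selectivity factor = crop GR15 / weed GR85.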

rape = assay: as above; assay type: in vivo; settings: Table XV
From the text: (§1) A good grade of top soil is placed in aluminum pans and compacted to a depth of three-eighths to one-half inch from the top of the pan. On the top of the soil is placed a number of seeds or vegetative propagules of various plant species. The soil required to level fill the pans after seeding or adding vegetative propagules is weighed into a pan. The soil and a known amount of the active ingredient applied in a solvent or as a wettable powder suspension are thoroughly mixed, and used to cover the prepared pans. After treatment, the pans are given an initial overhead irrigation of eater, equivalent to one-fourth inch (0.64 cm) rainfall, then watered by subirrigation as need to give adequate moisture for germination and growth. As an alternative procedure, the overhead irrigation may be omitted. Observations are made about 2-3 weeks after seeding and treatment.
(§2) In the discussion and tables of data below, reference is made to herbicide application rates symbolized as "GR15 " and "GR85 "; these rates are given in kilograms per hectare (kg/ha) which are convertible into pounds per acre (lbs/A) by dividing the kg/ha rate by 1.12.
(§3) A further guide to the effectiveness of a chemical as a selective herbicide is the "selectivity factor" ("SF") for a herbicide in given crops and weeds. The selectivity factor is a measure of the relative degree of crop safety and weed injury and is expressed in terms of the GR15 /GR85 ratio, i.e., the GR15 rate for the crop divided by the GR85 rate for the weed, both rates in kg/ha (lb/A). In the tables below, selectivity factors are shown in parenthesis following the GR85 rate for each weed; the symbol "NS" indicates "non-selective". Marginal or undetermined selectivity is indicated by a dash (--).
(§4) Additionally, pre-emergence herbicidal data from other tests have established that compounds according to this invention also selectively suppress quackgrass, yellow nutsedge and/or other weeds in one or more of the crops cotton, peanuts, bush beans and/or rape. For example, in Table VI are presented data showing the herbicidal selectivity of the compounds of Examples 1 and 2 against quackgrass in rape and snap beans. Unless otherwise noted; greenhouse tests in Table VI and in other tables below involved herbicide treatments by soil incorporation and an initial overhead irrigation followed by subirrigation as described above.
(§5) In another greenhouse test, the compounds of Examples 3-5, 9 and 10 were tested for their herbicidal efficacy against a variety of resistant annual and perennial weeds in rape.

purple nutsedge = assay: as above; assay type: in vivo; settings: Table XV
From the text: as §1, §2, §3, §4
In other greenhouse tests, compounds according to this invention have shown selective control of a variety of annual and perennial weeds in various crops. As further illustrative, the compound of Example 1 selectively controlled purple nutsedge in both corn nd soybeans, the respective crop/weed GR15 /GR85 ratios (expressed in kg/ha) being 0.67/0.25 (S.F.=2.7) in corn and 1.1/0.25 (S.F.=4.5) in soybeans. The compound of Example 8 has shown selective control of yellow nutsedge and quackgrass in corn and soybeans. The respective crop/yellownutsedge GR15 /GR85 ratios being >2.2/0.95 (S.F.=2.5) in corn; 2.2/0.5 (SF=4.5) in soybeans and the respective GR15 /GR85 ratios for both corn and soybeans in quackgrass being >2.2/0.5 (S.F.=4.5). In a test against yellow nutsedge in cotton, the GR15 /GR85 ratio (average of two replicates) was 2.0/0.95 (S.F.=2).
as §5

Texas panicum = assay: as above; assay type: in vivo; settings: Table XVI
From the text: as §1, with “After treatment, the pans are given an initial overhead irrigation of eater, equivalent to one-fourth inch (0.64 cm) rainfall, then watered by subirrigation as need to give adequate moisture for germination and growth.” left out
as §3
(§6) Unless otherwise noted; greenhouse tests in Table VI and in other tables below involved herbicide treatments by soil incorporation and an initial overhead irrigation followed by subirrigation as described above.

alexandergrass = assay: as above; assay type: in vivo; settings: Table XV
From the text: as §1, with “After treatment, the pans are given an initial overhead irrigation of eater, equivalent to one-fourth inch (0.64 cm) rainfall, then watered by subirrigation as need to give adequate moisture for germination and growth.” left out
as §3, §6

fall panicum = assay: as above; assay type: in vivo; settings: Table XVI
From the text: as §1, with “After treatment, the pans are given an initial overhead irrigation of eater, equivalent to one-fourth inch (0.64 cm) rainfall, then watered by subirrigation as need to give adequate moisture for germination and growth.” left out
as §3, §6

itchgrass = assay: as above; assay type: in vivo; settings: Table XVI
From the text: as §1, with “After treatment, the pans are given an initial overhead irrigation of eater, equivalent to one-fourth inch (0.64 cm) rainfall, then watered by subirrigation as need to give adequate moisture for germination and growth.” left out
as §3, §6

red rice = assay: as above; assay type: in vivo; settings: Table XVI
From the text: as §1, with “After treatment, the pans are given an initial overhead irrigation of eater, equivalent to one-fourth inch (0.64 cm) rainfall, then watered by subirrigation as need to give adequate moisture for germination and growth.” left out
as §3, §6

seedling johnsongrass = assay: as above; assay type: in vivo; settings: Table XVI
From the text: as §1, with “After treatment, the pans are given an initial overhead irrigation of eater, equivalent to one-fourth inch (0.64 cm) rainfall, then watered by subirrigation as need to give adequate moisture for germination and growth.” left out
as §3, §6

shattercane = assay: as above; assay type: in vivo; settings: Table XVI
From the text: as §1, with “After treatment, the pans are given an initial overhead irrigation of eater, equivalent to one-fourth inch (0.64 cm) rainfall, then watered by subirrigation as need to give adequate moisture for germination and growth.” left out
as §3, §6

wild proso millet = assay: as above; assay type: in vivo, wild proso millet (panicum milicaeum); settings: Table XVI
From the text: as §1, with “After treatment, the pans are given an initial overhead irrigation of eater, equivalent to one-fourth inch (0.64 cm) rainfall, then watered by subirrigation as need to give adequate moisture for germination and growth.” left out
as §3, §6

Quackgrass = assay: Herbicidal effect in a variety of soil types; assay type: in vivo; settings: Table XVII B; for selectivity factor (GR15/GR85): in soybeans
From the text: The herbicide treatments were by soil incorporation with seeds planted 0.375 in (0.95 cm) deep, with 0.25 in (0.64 cm overhead irrigation. Observations were made about three weeks after treatment. Selectivity factors are shown in parenthesis.

soybeans = assay: Herbicidal effect in a variety of soil types; assay type: in vivo; settings: Table XVII B

Structure (SMILES): Cc1cccc(C(F)(F)F)c1N(COC(C)C)C(=O)CCl [Example 4, N--(isopropoxymethyl)-2'-trifluoromethyl-6'-methyl-2-chloroacetanilide]
- GR15 (corn; Replicate #1): 1.7 Kg/Ha
- GR15 (corn; Replicate #2): 2.0 Kg/Ha
- GR15 Rate (rape): > 1.12 Kg/Ha
- GR85 Rate (purple nutsedge): 0.25 Kg/Ha
- selectivity factor (GR15/GR85) (purple nutsedge; in rape): > 4.5
- GR85 Rate (Texas panicum): 0.56 Kg/Ha
- selectivity factor (GR15/GR85) (Texas panicum; in lima beans): > 2
- selectivity factor (GR15/GR85) (Texas panicum; in peanuts): 1.8
- GR85 Rate (alexandergrass): 0.42 Kg/Ha
- selectivity factor (GR15/GR85) (alexandergrass; in rape): > 2.7
- GR85 Rate (fall panicum): 0.13 Kg/Ha
- selectivity factor (GR15/GR85) (fall panicum; in lima beans): > 8.6
- selectivity factor (GR15/GR85) (fall panicum; in peanuts): 7.5
- GR85 Rate (itchgrass): 0.50 Kg/Ha
- selectivity factor (GR15/GR85) (itchgrass; in lima beans): > 2.2
- selectivity factor (GR15/GR85) (itchgrass; in peanuts): 2
- GR85 Rate (red rice): 0.42 Kg/Ha
- selectivity factor (GR15/GR85) (red rice; in lima beans): > 2.7
- selectivity factor (GR15/GR85) (red rice; in peanuts): 2.3
- GR85 Rate (seedling johnsongrass): 0.51 Kg/Ha
- selectivity factor (GR15/GR85) (seedling johnsongrass; in lima beans): > 2.2
- selectivity factor (GR15/GR85) (seedling johnsongrass; in peanuts): 1.9
- GR85 Rate (shattercane): 0.51 Kg/Ha
- selectivity factor (GR15/GR85) (shattercane; in lima beans): > 2.2
- selectivity factor (GR15/GR85) (shattercane; in peanuts): 1.9
- GR85 Rate (wild proso millet): 0.47 Kg/Ha
- selectivity factor (GR15/GR85) (wild proso millet; in lima beans): > 2.4
- selectivity factor (GR15/GR85) (wild proso millet; in peanuts): 2.1
- GR85 (Quackgrass; Drummer silty clay): 0.11 Kg/Ha
- GR85 (Quackgrass; Florida muck): 0.67 Kg/Ha
- GR85 (Quackgrass; Florida sand): 0.25 Kg/Ha
- GR85 (Quackgrass; Ray silt loam): 0.13 Kg/Ha
- GR85 (Quackgrass; Sarpy silty clay): 0.39 Kg/Ha
- GR85 (Quackgrass; Wabash silty clay): 0.24 Kg/Ha
- selectivity factor (GR15/GR85) (Quackgrass; Drummer silty clay): 20
- selectivity factor (GR15/GR85) (Quackgrass; Florida muck): > 3
- selectivity factor (GR15/GR85) (Quackgrass; Florida sand): 9
- selectivity factor (GR15/GR85) (Quackgrass; Ray silt loam): 23
- selectivity factor (GR15/GR85) (Quackgrass; Sarpy silty clay): 5.5
- selectivity factor (GR15/GR85) (Quackgrass; Wabash silty clay): 12.5
- GR15 (soybeans; Drummer silty clay): 2.2 Kg/Ha
- GR15 (soybeans; Florida muck): > 2.2 Kg/Ha
- GR15 (soybeans; Florida sand): 2.2 Kg/Ha
- GR15 (soybeans; Ray silt loam): 3.0 Kg/Ha
- GR15 (soybeans; Sarpy silty clay): 2.2 Kg/Ha
- GR15 (soybeans; Wabash silty clay): 3.0 Kg/Ha
